According to US8614207B2, “Inhibitors of hepatitis C virus” (Presidio Pharmaceuticals, Inc., priority 2010, dated 2013):

Tested on: HCV1b replication (bicistronic genotype 1b replicon in Huh 7 cells)
Test: HCV replicon assay, 1b_Huh-Luc/Neo-ET cell line, luciferase readout
Format: cell-based, HCV genotype 1b
Settings: Hepatitis C virus, Group 1 / Group 2, read-out: EC50, concentration effective to produce a half-maximal inhibition of HCV1b replication
Description: Biological activity of the compounds of the invention was determined using an HCV replicon assay. The 1b_Huh-Luc/Neo-ET cell line persistently expressing a bicistronic genotype 1b replicon in Huh 7 cells was obtained from ReBLikon GMBH. This cell line was used to test compound inhibition using luciferase enzyme activity readout as a measurement of compound inhibition of replicon levels.
On Day 1 (the day after plating), each compound is added in triplicate to the cells. Plates incubated for 72 […] prior to running the luciferase assay. Enzyme activity was measured using a Bright-Glo Kit (cat. number E2620) manufactured by Promega Corporation. The following equation was used to generate a percent control value for each compound. % Control=(Average Compound Value/Average Control)*100
The EC50 value was determined using GraphPad Prism and the following equation: Y=Bottom+(Top−Bottom)/(1+10^((Log IC50−X)*HillSlope))
EC50 values of compounds are repeated several times in the replicon assay.

Row | Compound | EC50
1 | CNC(=O)c1c(-c2ccc(Oc3ccc(F)cc3)cc2)oc2cc3c(cc12)C(C)OC(CS(C)(=O)=O)CN3S(C)(=O)=O (centres unmarked) [Compound B192] | ≤ 0.01 µM
2 | CNC(=O)c1c(-c2ccc(F)cc2)oc2cc3c(cc12)[C@@H](C)O[C@H](CS(C)(=O)=O)CN3S(C)(=O)=O [Compound B215] | 0.01 to 0.1 µM
3 | CNC(=O)c1c(-c2ccc(F)cc2)oc2cc3c(cc12)[C@H](C)OCCN3S(C)(=O)=O [Compound B45] | ≤ 0.01 µM
4 | CNC(=O)c1c(-c2ccc(Oc3ccc(F)cc3)cc2)oc2cc3c(cc12)[C@@H](C)O[C@H](CS(C)(=O)=O)CN3S(C)(=O)=O [Compound B216] | 0.01 to 0.1 µM
5 | CNC(=O)c1c(-c2ccc(F)cc2)oc2cc3c(cc12)C(C)OCCN3S(C)(=O)=O (centres unmarked) [Compound B22] | 0.01 to 0.1 µM
